Experimental data taken from patent US10682352B2, “Compound having mutant IDH inhibitory activity, preparation method and use thereof” (SHANGHAI HAIHE PHARMACEUTICAL CO., LTD., priority 2016, dated 2020).

Target: IDH1 R132H (Homo sapiens (Human), UniProt O75874, R132H)
Assay: Effect on the enzyme activity of IDH1 at the molecular level (NADPH consumption, diaphorase/resazurin)
Assay type: biochemical
Conditions: α-KG 1 mM, NADPH 4 μM, 60 min room temperature
Method: The enzyme used in the experiment was purchased from cayman Co.
The substrates α-KG, NADPH and Diaphorase were purchased from Sigma; Resazurin was purchased from J&K; and the remaining reagents were purchased from Sinopharm Chemical Reagent Co., Ltd.
Compound preparation: Compound 12000 g was centrifuged for 5 min, DMSO was added to prepare 10 mM, which was vortexed, then ultrasonic treatment for 10 minutes, and stored at −40° C. The stock solution was diluted firstly with DMSO to a 10 μM solution when tested and then gradient-diluted for 3 times to a different test concentration.
Test method: The enzyme activity of IDH1 to convert α-KG to 2HG was measured by the consumption of NADPH. After the enzymatic reaction was completed, a catalytic excess of diaphorase and reazurin were added, and the resulting fluorescent signal could reflect the amount of remaining NADPH. […] IC50 values were calculated using GraphPad Prism software.

Sequence of IDH1 R132H (O75874 whole entry R132H): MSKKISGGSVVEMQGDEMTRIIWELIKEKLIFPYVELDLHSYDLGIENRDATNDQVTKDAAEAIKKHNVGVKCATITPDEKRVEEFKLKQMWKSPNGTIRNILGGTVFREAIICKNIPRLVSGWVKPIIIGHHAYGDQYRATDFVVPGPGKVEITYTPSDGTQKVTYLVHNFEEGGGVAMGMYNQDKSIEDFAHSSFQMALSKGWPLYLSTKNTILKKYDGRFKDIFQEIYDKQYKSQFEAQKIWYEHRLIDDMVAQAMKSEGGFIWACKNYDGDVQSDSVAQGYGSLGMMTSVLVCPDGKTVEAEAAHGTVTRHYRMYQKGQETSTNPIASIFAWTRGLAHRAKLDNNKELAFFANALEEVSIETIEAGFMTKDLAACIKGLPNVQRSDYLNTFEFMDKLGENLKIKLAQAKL

Row | Compound | IC50 [nM]
1 | CC(C)[C@H]1CN(C)C(=O)N1c1ccnc(NC2(c3cn(-c4cc(Cl)cc(C#N)c4)cn3)CC2)n1 [Compound 45, (S)-3-chloro-5-(4-(1-((4-(5-isopropyl-3-methylimidazolidine-2-one-1-yl)pyrimidin-2-yl)amine)cyclopropyl)-1H-imidazolidine-1-yl) phenyl cyanide] | < 100
2 | CC(C)[C@H]1CN(C)C(=O)N1c1ccnc(N[C@@H](C)c2cn(-c3cccc(C(F)(F)F)c3)cn2)n1 [Compound 59] | 100 to 1000
3 | CC(C)[C@H]1CN(C)C(=O)N1c1ccnc(N[C@@H](C)c2cn(-c3cc(Cl)cc(Cl)c3)cn2)n1 [Compound 60, (S)-3-(2-(((S)-1-(1-(3,5-dichlorophenyl)-1hydro-imidazol-4-yl)ethyl)amino)pyrimidin-4-yl)-4-isopropyl-1-methylimidazolidine-2-one] | 100 to 1000
4 | CC(C)[C@H]1CN(C)C(=O)N1c1ccnc(NC2(c3ncn(-c4cccc(C5CC5)c4)n3)CC2)n1 [Compound 64] | 100 to 1000
5 | CC(C)CCn1cnc([C@H](C)Nc2nccc(N3C(=O)N(C)C[C@@H]3C(C)C)n2)c1 [Compound 66, (S)-3-(2-(((S)-1-(1-isopentyl-1H-imidazol-4-yl)yl)amino)pyrimidin-4-yl)-4-isopropyl-1-methylimidazolidine-2-one] | 100 to 1000
6 | CC(C)[C@H]1CN(C)C(=O)N1c1ccnc(NC2(c3cn(-c4cccc(C5CC5)c4)c(Br)n3)CC2)n1 [Compound 67] | 100 to 1000
7 | CC(C)[C@H]1CN(C)C(=O)N1c1ccnc(NC2(c3ncn(-c4cccc(C5CC5)c4)c3C#N)CC2)n1 [Compound 69, (S)-1-(3-cyclopropylphenyl)-4-(1-((4-(5-isopropyl-3-methyl-2-oxoimidazolidine-1-yl)pyrimidine-2-yl)amino)cyclopropyl)-1H-imidazole-5-carbonitrile] | 100 to 1000
8 | CC(C)[C@H]1CN(C)C(=O)N1c1ccnc(N[C@@H](C)c2ncn(-c3ccc(Cl)cc3)n2)n1 [Compound 70] | 100 to 1000
9 | CC(C)[C@H]1CN(C)C(=O)N1c1ccnc(NC2(c3cn(-c4cccc(C5CC5)c4)cn3)CCC2)n1 [Compound 71, (S)-3-(2-((1-(1-(3-cyclopropylphenyl)-1H-imidazol-4-yl)cyclobutyl)amino)pyrimidin-4-yl)-4-isopropyl-1-methylimidazolidine-2-one] | 100 to 1000
10 | CC(C)[C@H]1CN(C)C(=O)N1c1ccnc(NC(C)(C)c2cn(-c3ccc(Cl)cc3)cn2)n1 [Compound 72, (S)-3-(2-((2-(1-(4-chlorophenyl)-1H-imidazol-4-yl)prop-2-yl)amino)pyrimidin-4-yl)-4-isopropyl-1-methylimidazolidine-2-one] | 100 to 1000
11 | CC(C)[C@H]1CN(C2CC2)C(=O)N1c1ccnc(N[C@@H](C)c2cn(-c3ccc(Cl)cc3)cn2)n1 [Compound 73, (S)-3-(2-(((S)-1-(1-(4-chlorophenyl)-1H-imidazol-4-yl)ethyl)amino)pyrimidin-4-yl)-4-isopropyl-1-cyclopropylimidazolidine-2-one] | 100 to 1000
12 | CCN1C[C@H](C(C)C)N(c2ccnc(N[C@@H](C)c3cn(-c4ccc(Cl)cc4)cn3)n2)C1=O [Compound 74, (S)-3-(2-(((S)-1-(1-(4-chlorophenyl) 1H-imidazol-4-yl)ethyl)amino)pyrimidin-4-yl)-1-ethyl-4-isopropylimidazolidine-2-one] | 100 to 1000
13 | CC(C)[C@H]1CN(C)C(=O)N1c1ccnc(N[C@@H](C)c2cn(C3CCC(F)(F)CC3)cn2)n1 [Compound 75, (S)-3-(2-(((S)-1-(1-(4,4-difluorocyclohexyl)-1H-imidazol-4-yl)ethyl)amino)pyrimidin-4-yl)-4-isopropyl-1-methylimidazolidine-2-one] | 100 to 1000
14 | Cc1cc(N2C(=O)N(C)C[C@@H]2C2CC2)nc(N[C@@H](C)c2cn(-c3ccc(Cl)cc3)cn2)n1 [Compound 79, (S)-3-(2-(((S)-1-(1-(4-chlorophenyl)-1H-imidazol-4-yl)ethyl)amino)-6-methylpyrimidin-4-yl) cyclopropyl-1-methylimidazolidine-2-one] | 100 to 1000
15 | C[C@H](Nc1nccc(N2C(=O)N(C)C[C@@H]2[C@@H](C)O)n1)c1cn(-c2ccc(Cl)cc2)cn1 [Compound 81] | 100 to 1000
16 | CC(C)[C@@H]1N(c2ccnc(N[C@@H](C)c3cn(-c4ccc(Cl)cc4)cn3)n2)C(=O)NC12CC2 [Compound 99, (S)-6-(2-(((S)-1-(1-(4-chlorophenyl)-1H-imidazol-4-yl)ethyl)amino)pyrimidin-4-yl)-7-isopropyl-4,6-diazaspiro[2.4] hept-5-one] | 100 to 1000

Continued, values first:

Row | IC50 [nM] | Compound
17 | 100 to 1000 | [2H]C1([2H])[C@H](C(C)C)N(c2ccnc(N[C@@H](C)c3ccc(-c4cccc(Cl)c4)cn3)n2)C(=O)N1C [Compound 2, (S)-3-(2-(((S)-1-(5-(3-chlorophenyl)pyridin-2-yl)ethyl)amino)pyrimidin-4-yl)-4-isopropyl-1-methyl-imidazolidine-2-one-5,5-dideutero]
18 | 100 to 1000 | CC(C)[C@H]1CNC(=O)N1c1ccnc(NC2(c3cn(-c4ccc(Cl)cc4)cn3)CC2)n1 [Compound 8, (S)-1-(2-((1-(1-(4-chlorophenyl)-1H-imidazol-4-yl)cyclopropyl)amino)pyrimidin-4-yl)-5-isopropyl imidazolidine-2-one]
19 | 100 to 1000 | CC(Nc1nccc(N2C(=O)NC[C@@H]2C(C)C)n1)c1ccc(Oc2ccccc2)cc1 (stereo partly drawn) [Compound 9, (5S)-5-isopropyl-1-(2-((1-(4-phenoxyphenyl)ethyl)amino)pyrimidin-4-yl)imidazolidine-2-one]
20 | 100 to 1000 | C[C@H](Nc1nccc(N2C(=O)NCC23CCCC3)n1)c1cn(-c2ccc(Cl)cc2)cn1 [Compound 11, (S)-1-(2-((1-(1-(4-chlorophenyl)-1H-imidazol-4-yl)ethyl)amino)pyrimidin-4-yl)-1,3-diazaspiro[4.4]-2-one]
21 | 100 to 1000 | C[C@H](Nc1nccc(N2C(=O)NCC2(C)C)n1)c1cn(-c2ccc(Cl)cc2)cn1 [Compound 12, (S)-1-(2-((1-(1-(4-chlorophenyl)-1H-imidazol-4-yl)ethyl)amino)pyrimidin-4-y 1)-5,5-dimethyl imidazolidine-2-one]
22 | 100 to 1000 | O=C1NC[C@H](c2ccccc2)N1c1ccnc(NC2(c3cn(-c4ccc(Cl)cc4)cn3)CC2)n1 [Compound 13, (S)-1-(2-((1-(1-(4-chlorophenyl)-1H-imidazol-4-yl)cyclopropyl)amino)pyrimidin-4-yl)-5-phenylimidazolidine-2-one]
23 | 100 to 1000 | C[C@H](Nc1nccc(N2C(=O)NC[C@@H]2C2CC2)n1)c1cn(-c2ccc(Cl)cc2)cn1 [Compound 14]
24 | 100 to 1000 | CC(C)[C@H]1CNC(=O)N1c1ccnc(NC2(c3ccc(-c4ccc(Cl)cc4)cc3)CC2)n1 [Compound 16, (S)-1-(2-((1-(4′-chloro-[1,1′-biphenyl]-4-yl)cyclopropyl)amino)pyrimidin-4-yl)-5-isopropyl imidazolidine-2-one]
25 | 100 to 1000 | CC(C)[C@H]1CN(C)C(=O)N1c1ccnc(NC2(c3cn(-c4ccc(Cl)cc4)cn3)CC2)n1 [Compound 19, (S)-3-(2-((1-(1-(4-chlorophenyl)-1H-imidazol-4-yl)cyclopropyl)amino)pyrimidin-4-yl)-4-isopropyl-1-methylimidazolidine-2-one]
26 | 100 to 1000 | Cc1ccc(-n2cnc(C3(Nc4nccc(N5C(=O)NC[C@@H]5C(C)C)n4)CC3)c2)cn1 [Compound 29, (S)-5-isopropyl-1-(2-((1-(1-(6-methylpyridin-3-yl)-1H-imidazol-4-yl)cyclopropyl)amino)pyrimidine-4-yl)-2-one]
27 | 100 to 1000 | CC(C)[C@H]1CN(C)C(=O)N1c1ccnc(NC2(c3cn(C4CCC(F)(F)CC4)cn3)CC2)n1 [Compound 36, (S)-3-(2-((1-(1-(4,4-difluorocyclohexyl)-1H-imidazol-4-yl)cyclopropyl)amino)pyrimidin-4-yl)-4-isopropyl-1-methylimidazolidine-2-one]
28 | 100 to 1000 | CC(C)[C@H]1CN(C)C(=O)N1c1ccnc(NC2(c3cn(-c4ccc(C5CC5)cc4)cn3)CC2)n1 [Compound 39, (S)-3-(2-((1-(1-(4-cyclopropylphenyl)-1H-imidazol-4-yl)cyclopropyl)amino)pyrimidin-4-yl)-4-isopropyl-1-methylimidazolidine-2-one]
29 | 100 to 1000 | CC(C)[C@H]1CN(C)C(=O)N1c1ccnc(NC2(c3cn(CC4CCCC4)cn3)CC2)n1 [Compound 40, (S)-3-(2-((1-(1-(cyclopentylmethyl)-1H-imidazol-4-yl)cyclopropyl)amino)pyrimidin-4-yl)-4-isopropyl-1-methylimidazolidine-2-one]
30 | 100 to 1000 | CCN1C[C@H](C(C)C)N(c2ccnc(NC3(c4cn(-c5cccc(Cl)c5)cn4)CC3)n2)C1=O [Compound 41]
31 | < 100 | CC(C)[C@H]1CN(C)C(=O)N1c1ccnc(NC2(c3cn(-c4cc(Cl)cc(C5CC5)c4)cn3)CC2)n1 [Compound 48]
32 | 100 to 1000 | CC(C)[C@H]1CN(C)C(=O)N1c1ccnc(NC2(c3cn(-c4ccccc4Cl)cn3)CC2)n1 [Compound 51, (S)-3-(2-((1-(1-(2-chlorophenyl)-1H-imidazol-4-yl)cyclopropyl)amino)pyrimidin-4-yl)-4-isopropyl-1-methylimidazolidine-2-one]
33 | < 100 | CC(C)[C@H]1CN(C)C(=O)N1c1ccnc(NC2(c3cn(-c4cc(F)cc(C5CC5)c4)cn3)CC2)n1 [Compound 53]
34 | 100 to 1000 | CC(C)c1cccc(-n2cnc([C@H](C)Nc3nccc(N4C(=O)N(C)C[C@@H]4C(C)C)n3)c2)c1 [Compound 54]
35 | 100 to 1000 | CC(C)[C@H]1CN(C)C(=O)N1c1ccnc(N[C@@H](C)c2cn(C3CCC(C)(C)CC3)cn2)n1 [Compound 56, (S)-3-(2-(((S)-1-(1-(4,4-dimethylcyclohexyl)-1H-imidazol-4-yl)ethyl)amino)pyrimidin-4-yl)-4-isopropyl-1-methylimidazolidine-2-one]
